# Assay: Human HepG2 cell viability assay in 384 well format
# Assay type: toxicity, cell-based
# Design: dose 125 nL, time 70.5 hour; cytotoxicity at 70.5 h: concentration not given beside the values
# Conditions: HepG2 cells, read-out: Inhibition
row,Structure (SMILES),cytotoxicity at 70.5 h [%]
1,CC(C)CS(=O)(=O)CCNC(=O)Nc1cccc2ncccc12,19.9
2,Cc1cc(CNC(=O)NC(C)(CO)C2CC2)c(C)s1 (centres undefined),-5.03
3,Cc1nn(C)c(Cl)c1CNCc1ccc(OCC(N)=O)cc1,1.75
4,COCCC1COC2(CCN(C(=O)C3CCCC3)CC2)C1 (centres undefined),-6.45
5,CC(C)c1nnc2n1CCN(CC(=O)N1CCc3ccccc3C1)C2,11.4
6,COCc1nc(CNc2cccc(-c3nc(C)c(C)o3)c2)cs1,-16.1
7,c1ccc(-c2nc(CCNCc3ccncc3)co2)cc1,-5.13
8,CCNC(=O)NCCc1csc(N2CCCC2)n1,-9.41
9,COc1ccc(Cn2c(C3CCNCC3)cc3cccnc32)cc1,3.16
10,Cc1ccc(C(=O)N2CCC3(CC2)CN(c2ccccn2)CCO3)cc1,-8.31
11,CC(C)N1CCCC1c1cc(C(F)(F)F)[nH]n1 (centres undefined),0.712
12,CCC(C(=O)Nc1ccc(-c2nc(C)n[nH]2)cc1)N1CCCC1=O (centres undefined),-9.81
13,COc1cccc(CN(C)CCCn2cnc3c(N)ncnc32)c1,-9.38
14,O=C(N[C@@H]1CN[C@H]2CCCO[C@H]21)c1cccnc1,1.62
15,Cc1ccc2c(CC(=O)N(C)CCN(C)C)c(C)[nH]c2c1C,2.2
16,COCCNc1ncc(-c2onc(C)c2C)c(-c2ccco2)n1,-5.67
17,CC(C)COC[C@@H]1CC[C@H]2[C@H](CCN2C(=O)c2ccncc2F)O1,1.98
18,CCC(NS(C)(=O)=O)c1ccccc1OC (centres undefined),-1.94
19,CN1CCC(CNC(=O)c2cccc(C(F)(F)F)c2)c2ccccc21 (centres undefined),0.294
20,O=C1CC(NS(=O)(=O)NCc2ccccc2)CN1c1ccccc1Cl (centres undefined),5.29
21,COCCN(C)C(=O)c1ccc2onc(-c3coc(C)n3)c2c1,-16.8
22,O=C(Cc1ccccn1)N1CCC2(CC1)CN(CC1CC1)C(=O)CO2,-5.52
23,COCCN1C[C@H]2CC[C@@H]1CN(Cc1cc(=O)c3cc(C)ccc3[nH]1)C2,-7.09

row,Structure (SMILES),cytotoxicity at 70.5 h [%]
1,CN(Cc1n[nH]c(=O)n1Cc1ccco1)S(C)(=O)=O,2.27
2,CN1CC(c2ccccc2)CC12CCN(C(=O)c1ccncc1)CC2 (centres undefined),-2.51
3,CC(C)n1ccc2c(C(=O)NC3CN4CCC3CC4)cccc21 (centres undefined),-17.6
4,CCCN(CC)C(=O)c1cc2c(c3ccccc3n2C)n1C(=O)N(C)C,4.9
5,N[C@H]1CN(C(=O)Cc2cc(F)cc(Cl)c2)C[C@@H]1C1CC1,-3.32
6,COCC(=O)N(C)Cc1nc(N(C)C)ncc1-c1ccncc1,-11.3
7,O=C(CC1CC1)N1CC[C@H]2OCC[C@@]2(COc2ncccc2F)C1,-21.5
8,COCCc1noc(CN2CC(C)(c3ccccc3)CCC2=O)n1 (centres undefined),-9.17
9,CCc1nnc(CN2CCC(N3CCN(CC)C3=O)CC2)o1,-16.5
10,CNC(=O)NC(=O)C(C)N1CCN(C2CCCC2)CC1 (centres undefined),-4.93
11,CCC(CNC(=O)c1ccc(F)cc1F)N1CCc2ccccc2C1 (centres undefined),-7.79
12,CC(=O)N1CCC(N2CCOC[C@H]2c2nc(-c3cccnc3)c[nH]2)CC1,17.9
13,CCc1ccc(S(=O)(=O)Nc2cn(C)cc(Br)c2=O)cc1,7.59
14,O=C(Cc1c[nH]c(=O)[nH]c1=O)N1CCCCC1CCc1ccccc1 (centres undefined),3.58
15,Cc1csc(N2CCN(C(=O)c3cc(Cl)c[nH]3)CC2)n1,-0.933
16,CCN(CC)[C@@H]1CN(Cc2nccn2C)[C@@H]2CCCO[C@H]12,-3.21
17,CC(O)CN1CCC(CN(C)CCC(=O)NC2CCCCC2)CC1 (centres undefined),14.6
18,COc1cccc(CNC(=O)c2nc3c(o2)CN(S(C)(=O)=O)C3)c1,-6.24
19,COc1ccc(NCc2ccccc2N2CCN(C(C)=O)CC2)cn1,0.712
20,Cc1cc(C2CCCN2C(=O)NCc2ccccn2)on1 (centres undefined),-16.2
21,COc1ccc(Cl)cc1NCC(=O)N(Cc1ccncc1)C1CC1,15.5
22,Cc1ccc(CNC(=O)C2=NOC3(CCCNC3)C2)cc1 (centres undefined),-13.2
23,COc1c(CNCc2cccnc2N2CCCCC2)c(C)nn1C,2.37

row,Structure (SMILES),cytotoxicity at 70.5 h [%]
1,CCOC(=O)CCNC(=O)c1nc(OCC)ccc1Cl,-3.61
2,CN(C)C1CCCN(C(=O)NCCNC(=O)C2CCCCC2)C1 (centres undefined),3.73
3,CN(C)Cc1ccnc(C2CCCN2Cc2ccc(F)cn2)n1 (centres undefined),17.2
4,Cn1cnc2cc(CCC(=O)Nc3n[nH]c(C4CCCO4)n3)ccc21 (centres undefined),1.89
5,O=C(NCc1n[nH]c2c1CCCCC2)c1cnn2c1CCCC2,-12.2
6,O=S(=O)(NCCN1CCCCC1Cn1cncn1)c1ccccc1 (centres undefined),-3.24
7,O=C(c1n[nH]cc1Br)N1CCOCC1,-4.31
8,c1cnnc(N2CCCC2CNCc2nc(C3CC3)no2)c1 (centres undefined),-11.8
9,CC(C)CCNC(=O)CNC(=O)N1CCc2c([nH]c3ccc(Cl)cc23)C1,-19.7
10,Cc1nnc(C2Cc3ccccc3CN2Cc2nc(C(C)C)no2)o1 (centres undefined),1.77
11,COCCCn1c(CN2CCCC(O)C2)cnc1S(=O)(=O)C1CCCC1 (centres undefined),-5.61
12,COc1ccc2c(ccn2CC(=O)Nc2n[nH]c(CC(C)C)n2)c1,-11.7
13,O=C(CN1CCC[C@H]1C(=O)O)NCCOc1cccc(Cl)c1,-1.34
14,CCc1ncc2c(n1)CN(Cc1nc(-c3ccoc3)no1)CC2,-3.42
15,CCOC(=O)NC(CNC(=O)c1cccnc1SC)CC(C)C (centres undefined),8.28
16,COc1cc(CNc2ccc(C)c(Cl)c2)ccc1OCC(N)=O,-11.9
17,CC(=O)Nc1ncc(S(=O)(=O)N2CCCC(C)C2)s1 (centres undefined),-3.6
18,CC(C)COCCC(=O)Nc1cccnc1-n1cncn1,-6.91
19,CC(C)[C@@H]1CN(c2ncc(F)cn2)C[C@H]1NC(=O)N(C)C,-3.08
20,COC(=O)C1CCN(C(=O)c2nnc3ccc(C)cc3n2)CC1,-6.57
21,O=C(C1CC(F)(F)C1)N1C[C@@H]2CN(CC3CCCC3)CCO[C@@H]2C1,22.1
22,CC(C)OCCN1CCN(C(=O)c2cccc(-n3cccn3)n2)CC1,-0.664
23,Cn1cc(S(=O)(=O)N(CC(F)(F)F)C2CC2)cc1C(N)=O,-4.65

row,Structure (SMILES),cytotoxicity at 70.5 h [%]
1,CC(C)NC(=O)c1ccc2nnc(C3CN(C)CCN3C)n2c1 (centres undefined),-8.09
2,COc1ccc(CNc2cnn(CC(F)F)c2)cc1,-0.452
3,Cc1noc(C)c1CN1CCCC2(C1)CN(c1nncs1)CCO2 (centres undefined),-7.2
4,O=C(CC1CC1)N[C@@H]1CN(Cc2nccs2)C[C@@H]2CCCO[C@@H]21,-2.11
5,O=C(NCc1ccncc1)N1CC(Cc2ccccc2F)C1,-5.27
6,CCCSc1ncc(C2CC(=O)NCc3nc4ccccn4c32)cn1 (centres undefined),-3.19
7,Fc1ccc(OCCNC2CCN(Cc3ccccn3)CC2)c(F)c1,20.2
8,CCN1CC(=O)NCC12CCN(C(=O)c1ccno1)C2 (centres undefined),2.94
9,CCc1nc(CN2CCCC(NCc3cnc(C)s3)C2)no1 (centres undefined),22.5
10,Cn1nc(Cn2cccc2)c2c1CN(Cc1ccsc1)C2,-9.77
11,COc1cc2c(nn1)CCN(Cc1ncc(C(C)(C)C)o1)C2,-5.34
12,COc1ccc(F)cc1S(=O)(=O)NCC(O)c1sccc1C (centres undefined),-2.63
13,CNC(=O)c1ccc(CNC(=O)c2ccc(Cl)cc2F)cc1,-11.8
14,COc1c(C2CCCN2C(=O)c2cc(C)on2)c(C)nn1C (centres undefined),-8.13
15,Cc1nc(S(=O)(=O)N2CCCCc3ccccc32)cn1C,9.73
16,CCOc1ccc(-n2ccc3nc(N4CCCC4)ncc3c2=O)cc1,-2.37
17,COc1ccc(C[C@H]2CN(C(=O)c3cnoc3)CC[C@@H]2OC)cc1,-3.97
18,Cc1noc(C)c1CN1CCC(N(C)Cc2nnc(C3CC3)n2C)C1 (centres undefined),-2.84
19,Cc1ccc2nc(CNc3ccccc3C(=O)NC3CC3)cn2c1,-4.35
20,Cn1ccnc1CN1CCC2(CC1)CN(c1ccccc1)C(=O)CO2,4.73
21,Cc1csc(NC(=O)C2CSCCC(=O)N2)n1 (centres undefined),-0.709
22,CN(Cc1nccn1CC(F)(F)F)C(=O)c1ccc(F)cc1F,-5.49
23,CN(C)S(=O)(=O)N(Cc1cscn1)c1ccccc1,12.4

row,Structure (SMILES),cytotoxicity at 70.5 h [%]
1,CC(C)[C@@H]1CN(CCOc2ccccc2)C[C@H]1NS(=O)(=O)N(C)C,-5.28
2,N#Cc1c(SCCN2CCCCCC2)sc2c(O)cc(O)nc12,12.1
3,N#Cc1cccc(OCCN2CCn3c(nnc3C3CC3)C2)c1,-11
4,Cc1noc(C2CCN(C(=O)CN(C)c3ccc(Cl)cn3)CC2)n1,-20.9
5,Cc1ccc(N2CCC(C(O)c3cccs3)CC2)nn1 (centres undefined),-4.12
6,CCS(=O)(=O)N1CCN(C(=O)NC(C)C)CC2(CNC(=O)C2)C1 (centres undefined),-26.5
7,CC(C)c1noc(CCNC(=O)N2CCN(c3cccs3)CC2)n1,40.3
8,COc1cc(CSc2nnc(N)n2C2CC2)ccc1SC,-5.1
9,CN(C)CCNC(=O)c1ccc2c(-c3nccs3)noc2c1,-8.08
10,CCc1nc2n(n1)CCCC2NC(=O)Nc1ccc(F)cc1C#N (centres undefined),1.79
11,COc1ccc(-c2cnc3c(c2)CN(C2CC2)C(=O)CCN3)cc1,-4.59
12,COc1ccc(NC(C)c2ccc(C#N)cc2)cc1N1CCCC1=O (centres undefined),1.58
13,Cc1nn(CCO)c(C)c1-c1cc(C(C)(C)C)nc(N)c1C#N,16.9
14,CCC(C)CNc1ccc2oc(COC)nc2c1 (centres undefined),42.8
15,CNS(=O)(=O)CC(=O)N1CCC(c2cc3ccccc3[nH]2)CC1,1.33
16,CC(C)CN1C[C@H]2N(c3ncccn3)CCC[C@@]2(C(=O)NCC2CC2)C1,-3.44
17,Cc1nc(N2CCC3(CCCN(C(C)C)C3=O)C2)c2sccc2n1 (centres undefined),-13.4
18,CO[C@@H]1CCN(S(=O)(=O)c2cn(C)cn2)[C@H]1Cc1ccncc1,4.82
19,CCOC(=O)c1nnc2ccccc2c1N1CCOC(C)(C)C1,16.1
20,Cc1ccc2c(c1)SCC(=O)N2CC(=O)N1CCCC1c1nccs1 (centres undefined),-14
21,CN1CCN(c2nccc(-c3cncnc3C3CCCCC3)n2)CC1,-5.17
22,CCc1nc(-c2ccc(NC(=O)N3CCC4(CC3)OCCO4)cc2)no1,3.68
